Test results taken from patent publication US20140303123A1, “SYNTHESIZING FUNCTIONALIZED DENDRIMERS WITHIN BIOLOGICAL SETTINGS” (priority 2011, published 2014).

Key:
folate receptor = conditions: relative to folic acid; cited from earlier work
[1] = test system: CD11b+ macrophages (peritoneal macrophages, lymph nodes); assay: In vivo trafficking of FA-targeted dendrimer nanoparticles in a murine model of inflammation (thioglycollate IP); conditions: thioglycollate-stimulated mice, 35 mg/kg IP on day 3, cells isolated day 4 (FIG. 6); for uptake in peritoneal macrophages (PEM): 35 mg/kg
Description: Mice (n=2) were stimulated with thioglycollate IP. 3 days following thioglycollate, mice were administered 200 μl (35 mg/kg) folate functionalized dendrimer alkyne scaffolds. One day later (day 4), peritoneal macrophages (PEM), spleen, cervical lymph nodes, and mesenteric lymph nodes were isolated and processed into single-cell suspensions. Suspensions were stained with a CD11b monoclonal PE antibody and then fixed and permeabilized. Cell suspensions were then reacted with AlexaFluor 647-azide to detect dendrimer conjugates and analyzed by flow cytometry.
On day 1, mice (n=2) were treated IP with thioglycollate to stimulate folate receptor positive macrophage infiltration into the peritoneal cavity (see, e.g., Xia, W. et al. Blood 113, 438-446 (2005); herein incorporated by reference in its entirety). On day 3, mice were administered folate targeted dendrimers IP (35 mg/kg). On day 4, peritoneal macrophages (PEM) as well as the spleen, submandibular lymph nodes, and mesenteric lymph nodes were isolated and processed as using standard techniques. Single cell suspensions were made and analyzed by flow cytometry for co-expression of the macrophage marker CD11b and the FA-dendrimer scaffolds. […] Compared to the cervical lymph nodes (secondary lymph organs not draining the peritoneal cavity), there was a greater proportion of double-positive CD11b and FR cells in the mesenteric lymph nodes consistent with the trafficking of these activated macrophages.

[2] = test system: FRα over-expressing KB cells; assay: Uptake of dendrimer conjugates in KB cells, in situ CuAAC detection with fluorescent azide, flow cytometry; format: cell-based; conditions: increasing concentrations, 1 hour at 37° C., Alexa647-azide detection (FIG. 2A)
Description: KB cells were cultured in RPMI 1640 medium without folic acid for at least 4 days before experiments, resulting in the folic acid receptor overexpressing KB (FAR-KB) cell line. […] For the flow cytometry measurements, cells were seeded on a 12-well plate for tissue culture at a concentration of 23105 cells/well and grown in folic acid deficient RPMI 1640 media (Mediatech, Herndon, Va.) at 37° C., 5% CO2 for 24 hr. The cells were then incubated with the series of the prepared nanodevices at either 37° C. for 1 hr. After removal of supernatants, cells were trypsinized and collected into FACS tubes, followed by centrifugation at 1500 rpm for 5 min to obtain cell pellets. […] Fluorescence signal intensities from the samples were measured using a Coulter EPICS/XL MCL Beckman-Coulter flow cytometer, and data were analyzed using FloJo 8.2 software (TreeStar).
After 4% paraformaldehyde fixation and permeabilization with 10% saponin in PBS and BSA, cells were rinsed and then stained by incubating cells for 30 min with 100 mM Tris (pH 8.5), 1 mM CuSO4, 1-100 μM fluorescent azide (in DMSO), and 100 mM ascorbic acid (added last to the mix in 0.5 M stock in water). […] After staining, cells were washed with 10% saponin solution and assessed by flow cytometry.

[3] = test system: bone marrow derived macrophages (BMDM); conditions: BMDMs differentiated with IL-4 and IL-10, 30 nM, 6 hours at 37° C. (FIG. 4)
Description: Bone marrow derived macrophages (BMDM) were obtained as previously described. Briefly, bone marrow precursors from female C57BL/6 mice were isolated and propagated for 7 days in RPMI 1640 supplemented with penicillin (100 units/ml), streptomycin (100 mg/ml), and 10% heat inactivated low endotoxin fetal bovine serum with L-conditioned media. Following propagation, BMDMs were polarized with murine recombinant proteins M-CSF (10 ng/ml), IL4 (50 ng/ml), IL10 (10 ng/ml), or GM-CSF (10 ng/ml) for 72 hours (Peprotech). For the flow cytometry measurements, cells were seeded on a 12-well plate for tissue culture at a concentration of 23105 cells/well and grown in folic acid deficient RPMI 1640 media (Mediatech, Herndon, Va.) at 37° C., 5% CO2 for 24 hr. […] Fluorescence signal intensities from the samples were measured using a Coulter EPICS/XL MCL Beckman-Coulter flow cytometer, and data were analyzed using FloJo 8.2 software (TreeStar).
After 4% paraformaldehyde fixation and permeabilization with 10% saponin in PBS and BSA, cells were rinsed and then stained by incubating cells for 30 min with 100 mM Tris (pH 8.5), 1 mM CuSO4, 1-100 μM fluorescent azide (in DMSO), and 100 mM ascorbic acid (added last to the mix in 0.5 M stock in water). […] After staining, cells were washed with 10% saponin solution and assessed by flow cytometry. […]

## CN(Cc1cnc2nc(N)nc(N)c2n1)c1ccc(C(=O)N[C@@H](CCC(=O)O)C(=O)O)cc1 [methotrexate]
Folate receptor
  affinity for the folate receptor in comparison to folic acid (lower): 100 fold

## G5-NHAc80-Alkyne8-FA4-Gly [FA-dendrimer alkyne conjugates]
[1]
  uptake in CD11b+ cells in the mesenteric lymph nodes: significant uptake
[1]; listed as FA-dendrimer nanoparticles
  uptake in peritoneal macrophages (PEM): much higher uptake
[1]; listed as folate nanodevices
  uptake in peritoneal macrophages (PEM): significant uptake
[2]
  cellular uptake: dose-dependent cellular uptake

## G5-NHAc80-Alkyne12-Gly [non-targeted dendrimer conjugates]
[2]
  cellular uptake: did not demonstrate any significant uptake

## G5-NHAc80-Alkyne12-Mannose15-Gly [mannose-targeted dendrimers]
[3]
  binding and uptake compared to non-targeted controls: increased binding and uptake
